Assay [1] deals with UO-31. In words: Cytotoxicity against human UO-31 cells assessed as growth inhibition at 10 uM relative to control. The format is functional. As to conditions: read-out: GI.
The subject of a further assay is NCI/ADR-RES. The assay can be described thus: Cytotoxicity against human NCI/ADR-RES cells assessed as growth inhibition at 10 uM relative to control. The format is functional. As to conditions: read-out: GI.
A further assay concerns NCI-H23. The assay can be described thus: Cytotoxicity against human NCI-H23 cells assessed as growth inhibition at 10 uM relative to control. As to conditions: read-out: GI. The assay is classed as functional.
A further assay relates to UACC-257. The assay can be described thus: Cytotoxicity against human UACC-257 cells assessed as growth inhibition at 10 uM relative to control. The assay is classed as functional. As to conditions: read-out: GI.
The next assay deals with ACHN. The assay can be described thus: Cytotoxicity against human ACHN cells assessed as growth inhibition at 10 uM relative to control. As to conditions: read-out: GI. The assay is classed as functional.
The subject of another assay is CCRF-CEM. The assay can be described thus: Cytotoxicity against human CCRF-CEM cells assessed as growth inhibition at 10 uM relative to control. The format is functional. As to conditions: read-out: GI.
The next assay relates to HOP-92. In words: Cytotoxicity against human HOP-92 cells assessed as growth inhibition at 10 uM relative to control. The assay is classed as functional. As to conditions: read-out: GI.
The next assay relates to SF-539. The assay can be described thus: Cytotoxicity against human SF-539 cells assessed as growth inhibition at 10 uM relative to control. The format is functional. As to conditions: read-out: GI.
The next assay relates to SF-268. In words: Cytotoxicity against human SF-268 cells assessed as growth inhibition at 10 uM relative to control. The assay is classed as functional. As to conditions: read-out: GI.
For a further assay, the system named is A498. In words: Cytotoxicity against human A498 cells assessed as growth inhibition at 10 uM relative to control. The format is functional. As to conditions: read-out: GI.
The subject of another assay is MCF7. In words: Cytotoxicity against human MCF7 cells assessed as growth inhibition at 10 uM relative to control. The format is functional. As to conditions: read-out: GI.
The next assay has as its system RPMI-8226. In words: Cytotoxicity against human RPMI-8226 cells assessed as growth inhibition at 10 uM relative to control. The assay is classed as functional. As to conditions: read-out: GI.
In assay [2] the test system is M14. In words: cells. As to conditions: Homo sapiens, M14, 24 h.
For another assay, the system named is BT-549. In words: Cytotoxicity against human BT-549 cells assessed as growth inhibition at 10 uM relative to control. The assay is classed as functional. As to conditions: read-out: GI.
The subject of another assay is IGROV-1. The assay can be described thus: Cytotoxicity against human IGROV-1 cells assessed as growth inhibition at 10 uM relative to control. The format is functional. As to conditions: read-out: GI.
For another assay, the system named is MOLT-4. The assay can be described thus: Cytotoxicity against human MOLT-4 cells assessed as growth inhibition at 10 uM relative to control. As to conditions: read-out: GI. The format is functional.
Another assay has as its system CAKI-1. In words: Cytotoxicity against human CAKI-1 cells assessed as growth inhibition at 10 uM relative to control. As to conditions: read-out: GI. The assay is classed as functional.
For the next assay, the system named is LOX IMVI. In words: Cytotoxicity against human LOX IMVI cells assessed as growth inhibition at 10 uM relative to control. As to conditions: read-out: GI. The assay is classed as functional.
In assay [3] the test system is M14. In words: cells. As to conditions: Homo sapiens, M14, light or radiation study.
A further assay concerns T47D. The assay can be described thus: Cytotoxicity against human T47D cells assessed as growth inhibition at 10 uM relative to control. The format is functional. As to conditions: read-out: GI.
The next assay has as its system MDA-MB-468. The assay can be described thus: Cytotoxicity against human MDA-MB-468 cells assessed as growth inhibition at 10 uM relative to control. The assay is classed as functional. As to conditions: read-out: GI.
The next assay has as its system PC-3. In words: Cytotoxicity against human PC-3 cells assessed as growth inhibition at 10 uM relative to control. As to conditions: read-out: GI. The assay is classed as functional.
For another assay, the system named is U-251. In words: Cytotoxicity against human U-251 cells assessed as growth inhibition at 10 uM relative to control. The assay is classed as functional. As to conditions: read-out: GI.
The test system of the next assay is NCI-H522. In words: Cytotoxicity against human NCI-H522 cells assessed as growth inhibition at 10 uM relative to control. The format is functional. As to conditions: read-out: GI.
The next assay has as its system SNB-75. In words: Cytotoxicity against human SNB-75 cells assessed as growth inhibition at 10 uM relative to control. The format is functional. As to conditions: read-out: GI.
In the next assay the test system is Hs-578T. In words: Cytotoxicity against human Hs-578T cells assessed as growth inhibition at 10 uM relative to control. As to conditions: read-out: GI. The assay is classed as functional.
Another assay has as its system K562. The assay can be described thus: Cytotoxicity against human K562 cells assessed as growth inhibition at 10 uM relative to control. The format is functional. As to conditions: read-out: GI.
The subject of the next assay is UACC-62. The assay can be described thus: Cytotoxicity against human UACC-62 cells assessed as growth inhibition at 10 uM relative to control. The format is functional. As to conditions: read-out: GI.
The test system of assay [4] is UO-31. The assay can be described thus: cells. As to conditions: Homo sapiens, UO-31, light or radiation study.
Another assay deals with SR. The assay can be described thus: Cytotoxicity against human SR cells assessed as growth inhibition at 10 uM relative to control. As to conditions: read-out: GI. The format is functional.
For the next assay, the system named is KM12. The assay can be described thus: Cytotoxicity against human KM12 cells assessed as growth inhibition at 10 uM relative to control. The format is functional. As to conditions: read-out: GI.
The test system of another assay is MDA-MB-231. In words: Cytotoxicity against human MDA-MB-231 cells assessed as growth inhibition at 10 uM relative to control. The format is functional. As to conditions: read-out: GI.
A further assay has as its system SK-OV-3. The assay can be described thus: Cytotoxicity against human SK-OV-3 cells assessed as growth inhibition at 10 uM relative to control. As to conditions: read-out: GI. The format is functional.
The next assay relates to EKVX. In words: Cytotoxicity against human EKVX cells assessed as growth inhibition at 10 uM relative to control. As to conditions: read-out: GI. The format is functional.
In another assay the test system is 786-0. In words: Cytotoxicity against human 786-0 cells assessed as growth inhibition at 10 uM relative to control. The format is functional. As to conditions: read-out: GI.
A further assay has as its system HT-29. In words: Cytotoxicity against human HT-29 cells assessed as growth inhibition at 10 uM relative to control. As to conditions: read-out: GI. The assay is classed as functional.
For assay [5], the system named is UO-31. The assay can be described thus: cells. As to conditions: Homo sapiens, UO-31, 24 h.

Broadly, the IC50 is the concentration needed to halve the response being measured.

As to `NS(=O)(=O)c1ccc(-n2c(SCC(=O)Nc3ccc(S(=O)(=O)Nc4ccc(Cl)nn4)cc3)nc3ccccc3c2=O)cc1`, the inhibition of growth at 10 µM with UO-31 [1] came to 17%; in the assay on NCI/ADR-RES, 11%; in the assay on NCI-H23 it was 14%; in the assay on UACC-257 it was 10%; in the assay with ACHN it was 10%; in the assay with CCRF-CEM, 10%. Further, the inhibition of growth at 10 µM with HOP-92 was determined as 24%; in the assay on SF-539, 11%.
In the case of `O=C(CSc1nc2ccccc2c(=O)n1-c1ccc(S(=O)(=O)Nc2ccc(Cl)nn2)cc1)Nc1ccccc1`, the inhibition of growth at 10 µM in the assay on SF-268 is 10%; in the assay with A498 it was 15%; with MCF7 it was 17%; with RPMI-8226, 11%; with BT-549, 13%; in the assay with UO-31 [1], 13%. Besides, the inhibition of growth at 10 µM with IGROV-1 is 13%; in the assay on MOLT-4, 18%; in the assay with CAKI-1, 12%; with LOX IMVI, 18%; with T47D it was 18%; in the assay with MDA-MB-468, 15%. The inhibition of growth at 10 µM in the assay on PC-3 is 14%; with U-251, 22%; with CCRF-CEM, 11%; in the assay on NCI-H522, 10%; in the assay on SNB-75, 11%; in the assay on Hs-578T, 27%. For the same compound, the inhibition of growth at 10 µM in the assay with K562 was found to be 12%; with UACC-62, 35%. Further, the IC50 in the assay on M14 [2] stood at 4.46 µM; in the assay with M14 [3], 4.76 µM.
As for `O=C(CSc1nc2ccccc2c(=O)n1-c1ccc(S(=O)(=O)Nc2ccc(Cl)nn2)cc1)NCCc1ccccc1`, the inhibition of growth at 10 µM with SF-268 is 13%; with A498, 37%; in the assay on MCF7, 24%; with RPMI-8226 it was 11%; with BT-549, 10%; in the assay with UO-31 [1] it was 29%. Further, the inhibition of growth at 10 µM was found to be 21% in the assay on SR; 15% in the assay on IGROV-1; 20% in the assay with MOLT-4; 14% in the assay with KM12; 20% in the assay on MDA-MB-231; 14% with LOX IMVI. The inhibition of growth at 10 µM in the assay on T47D was 27%; with SK-OV-3, 20%; in the assay on EKVX, 24%; with MDA-MB-468, 10%; with 786-0 it was 16%; in the assay with CCRF-CEM, 14%. Also, the inhibition of growth at 10 µM with HOP-92 amounted to 12%; in the assay on NCI-H522, 22%; with Hs-578T, 23%; with HT-29 it was 11%; with K562 it was 11%; in the assay with UACC-62, 20%. Also, the IC50 is 3.49 µM in the assay on UO-31 [4] and 3.14 µM with UO-31 [5].

Values taken from ChEMBL document CHEMBL5385860, “Antiproliferative, antiangiogenic and apoptotic effect of new hybrids of quinazoline-4(3H)-ones and sulfachloropyridazine” (Eur J Med Chem, 2023).
